The values that follow come from patent US20230399312A1, “SUBSTITUTED PYRIMIDINES AND METHODS OF USE” (THERAVANCE BIOPHARMA R&D IP, LLC, priority 2020, published 2023).

Where only a bound is given, the exact number is not on record here.

The target of assay [1] is T1, recombinant human ALK5 (TGF-βR1) protein (Homo sapiens, UniProt P36897).
T1 construct: purchased Life Technologies PR9075A
T1 sequence (P36897 34-503): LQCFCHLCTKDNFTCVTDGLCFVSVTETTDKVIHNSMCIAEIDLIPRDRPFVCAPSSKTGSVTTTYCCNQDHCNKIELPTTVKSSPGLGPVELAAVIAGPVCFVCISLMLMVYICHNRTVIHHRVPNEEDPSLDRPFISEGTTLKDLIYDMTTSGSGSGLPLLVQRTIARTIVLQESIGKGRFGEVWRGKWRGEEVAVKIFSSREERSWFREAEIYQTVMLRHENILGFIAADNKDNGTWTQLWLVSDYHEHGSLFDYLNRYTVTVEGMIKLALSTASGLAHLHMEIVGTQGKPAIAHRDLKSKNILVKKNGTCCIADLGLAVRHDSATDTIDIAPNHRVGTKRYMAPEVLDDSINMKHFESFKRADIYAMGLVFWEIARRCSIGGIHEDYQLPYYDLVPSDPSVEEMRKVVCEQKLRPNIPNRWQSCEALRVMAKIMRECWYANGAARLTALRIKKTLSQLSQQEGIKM
Nature of the assay: Biochemical ALK5 (TGF-βR1) assay to measure pKi (LANCE Ultra ULight kinase assay). The conditions noted are these: apparent pKi, converted from pIC50 by Cheng-Prusoff. The method in brief:
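Read-out was LANCE Ultra TR-FRET with a europium anti-phospho-Topo IIα Thr1342 antibody after EDTA quench. Kinase reaction ran 60 min at 37 °C with ATP added from a 125 μM 5× stock, after 60 min compound–enzyme equilibration at room temperature. Values are pKi from Cheng-Prusoff conversion of fitted pIC50.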
In general terms: In TR-FRET formats the signal depends on donor and acceptor labels being close together.

Assay [2] relates to TGF-β-stimulated SMAD3 phosphorylation in BEAS-2B cells. Briefly: Cellular ALK5 potency assay, inhibition of TGF-β stimulated pSMAD3 formation in BEAS-2B cells. To be noted: Homo sapiens, pSMAD3, TGF-β 10 ng/mL, read-out: BEAS2B pIC50 (converted). The class given is cell-based. Summed up: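 BEAS-2B cells, HBSS/25 mM HEPES/1% BSA buffer; cpd 1 h, 37 °C; TGF-β 10 ng/mL final, 30 min; lysis, AlphaLISA pSMAD3 read next day. pIC50 vs stimulated no-compound baseline.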

Take `Cc1cccc(-c2nccc(Nc3ccnc(Nc4ccc(C(=O)OC5CCNCC5)cn4)n3)n2)n1` [Compound 634, 4-piperidyl 6-[[4-[[2-(6-methyl-2-pyridyl)pyrimidin-4-yl]amino]pyrimidin-2-yl]amino]pyridine-3-carboxylate]: the Ki in assay [1] is 3.98 to 31.6 nM. Further, the IC50 in assay [2] is 25.1 to 158 nM.

Take `Cc1cccc(-c2nccc(Nc3ccnc(Nc4ccc(CN5CC(C(=O)O[C@@H]6CCN(C)C6)C5)cc4)n3)n2)n1` [Compound 69, [(3R)-1-methylpyrrolidin-3-yl] 1-[[4-[[4-[[2-(6-methyl-2-pyridyl)pyrimidin-4-yl]amino]pyrimidin-2-yl]amino]phenyl]methyl] azetidine-3-carboxylate]: in assay [1], the Ki was 0.0398 to 0.316 nM. For the same compound, the IC50 in assay [2] was 25.1 to 158 nM.

As for `Cc1cccc(-c2nccc(Nc3ccnc(Nc4csc(NC(=O)C5CCNCC5)c4)n3)n2)n1` [Compound 452, N-(4-((4-((2-(6-methylpyridin-2-yl)pyrimidin-4-yl)amino)pyrimidin-2-yl)amino)thiophen-2-yl)piperidine-4-carboxamide], the Ki in assay [1] is 0.0398 to 0.316 nM. Moreover, the IC50 in assay [2] was at most 20 nM.

On to `Cc1cccc(-c2nccc(Nc3ccnc(Nc4ccc(N(C)C5CCNC5)cc4)n3)n2)n1` (racemic) [Compound 274, N4-[2-(6-methyl-2-pyridyl)pyrimidin-4-yl]-N2-[4-[methyl-[rac-(3R)-pyrrolidin-3-yl]amino]phenyl]pyrimidine-2,4-diamine], for which the Ki in assay [1] was 0.0398 to 0.316 nM. In addition, in assay [2], the IC50 is 25.1 to 158 nM.

On to `Cc1cccc(-c2nc(Nc3ccnc(Nc4ccc(N5CCNCC5)cc4)n3)cc(-c3c[nH]nn3)n2)n1` [Compound 1012, N4-[2-(6-methyl-2-pyridyl)-6-(1H-triazol-4-yl)pyrimidin-4-yl]-N2-(4-piperazin-1-ylphenyl)pyrimidine-2,4-diamine], for which the Ki in assay [1] is 0.0398 to 0.316 nM. Besides, the IC50 in assay [2] was 1580 to 10000 nM.

Consider `COC(=O)c1cc(Nc2nccc(Nc3ccnc(-c4cccc(C)n4)n3)n2)ccc1N1CCNCC1` [Compound 312, methyl 5-[[4-[[2-(6-methyl-2-pyridyl)pyrimidin-4-yl]amino]pyrimidin-2-yl]amino]-2-piperazin-1-yl-benzoate], for which the Ki in assay [1] was 0.0398 to 0.316 nM. For the same compound, in assay [2], the IC50 was 25.1 to 158 nM.

Regarding `Cc1cccc(-c2nccc(Nc3ccnc(Nc4nc(CN5CCC[C@@H](C(=O)O[C@@H]6CCN(C)C6)C5)cs4)n3)n2)n1` [Compound 460, [(3R)-1-methylpyrrolidin-3-yl] (3R)-1-[[2-[[4-[[2-(6-methyl-2-pyridyl)pyrimidin-4-yl]amino]pyrimidin-2-yl]amino]thiazol-4-yl]methyl]piperidine-3-carboxylate], in assay [1], the Ki is 0.0398 to 0.316 nM. For the same compound, the IC50 in assay [2] was 25.1 to 158 nM.

In the case of `Cc1cccc(-c2nccc(Nc3ccnc(Nc4cccc(NC(=O)C5(CO)CNC5)c4)n3)n2)n1` [Compound 164, 3-(hydroxymethyl)-N-[3-[[4-[[2-(6-methyl-2-pyridyl)pyrimidin-4-yl]amino]pyrimidin-2-yl]amino]phenyl]azetidine-3-carboxamide], the Ki in assay [1] is 0.0398 to 0.316 nM. Also, the IC50 in assay [2] is 25.1 to 158 nM.

For `Cc1cccc(-c2nccc(Nc3ccnc(Nc4ccc(N5CCOCC5)c(F)c4)n3)n2)n1` [Compound 300, N2-(3-fluoro-4-morpholino-phenyl)-N4-[2-(6-methyl-2-pyridyl)pyrimidin-4-yl]pyrimidine-2,4-diamine], in assay [1], the Ki is 0.0398 to 0.316 nM. Also, the IC50 in assay [2] was 25.1 to 158 nM.

In the case of `Cc1cccc(-c2nccc(Nc3ccnc(Nc4ccc(CN5CCC[C@@H](C(=O)OCC6CN(C)C6)C5)cc4)n3)n2)n1` [Compound 182, (1-methylazetidin-3-yl)methyl (3R)-1-[[4-[[4-[[2-(6-methyl-2-pyridyl)pyrimidin-4-yl]amino]pyrimidin-2-yl]amino]phenyl]methyl] piperidine-3-carboxylate], in assay [1], the Ki is 0.0398 to 0.316 nM. In addition, in assay [2], the IC50 was 25.1 to 158 nM.

As to `Cc1cccc(-c2nccc(Nc3ccnc(Nc4ccc(CN5CC(C)(N)C5)cc4)n3)n2)n1` [Compound 438, N2-[4-[(3-amino-3-methyl-azetidin-1-yl)methyl]phenyl]-N4-[2-(6-methyl-2-pyridyl)pyrimidin-4-yl]pyrimidine-2,4-diamine], in assay [1], the Ki is 0.0398 to 0.316 nM. In assay [2], the IC50 was 25.1 to 158 nM.

In the case of `COC(=O)C1CNCCN1c1ccc(Nc2nccc(Nc3ccnc(-c4cccc(C)n4)n3)n2)cc1` (stereo not drawn) [Compound 204, methyl 1-[4-[[4-[[2-(6-methyl-2-pyridyl)pyrimidin-4-yl]amino]pyrimidin-2-yl]amino]phenyl]piperazine-2-carboxylate], the Ki in assay [1] is 0.0398 to 0.316 nM. In addition, in assay [2], the IC50 is 25.1 to 158 nM.

For the compound `Cc1cccc(-c2nccc(Nc3ccnc(Nc4csc(C(=O)OCC5CNC5)c4)n3)n2)n1` [Compound 96, azetidin-3-ylmethyl 4-((4-((2-(6-methylpyridin-2-yl)pyrimidin-4-yl)amino)pyrimidin-2-yl)amino)thiophene-2-carboxylate], the Ki in assay [1] is 0.0398 to 0.316 nM. The IC50 in assay [2] is 25.1 to 158 nM.

For `Cc1cccc(-c2nccc(Nc3ccnc(Nc4ccc(C(=O)N5CCNCC5)s4)n3)n2)n1` [Compound 115, [5-[[4-[[2-(6-methyl-2-pyridyl)pyrimidin-4-yl]amino]pyrimidin-2-yl]amino]-2-thienyl]-piperazin-1-yl-methanone], in assay [1], the Ki is 0.0398 to 0.316 nM. In addition, the IC50 in assay [2] was 25.1 to 158 nM.

Consider `Cc1cccc(-c2cccc(Nc3ccnc(Nc4ccc(N5CCOCC5)cc4)n3)n2)n1` [Compound 1000, N4-[6-(6-methyl-2-pyridyl)-2-pyridyl]-N2-(4-morpholinophenyl)pyrimidine-2,4-diamine], for which the Ki in assay [1] was 3.98 to 31.6 nM. Further, the IC50 in assay [2] is 25.1 to 158 nM.

Take `Fc1ccc(-c2nccc(Nc3ccnc(Nc4ccc(N5CCOCC5)cc4)n3)n2)c(F)c1` [Compound 35, N4-[2-(2,4-difluorophenyl)pyrimidin-4-yl]-N2-(4-morpholinophenyl) pyrimidine-2,4-diamine]: the Ki in assay [1] is 3.98 to 31.6 nM. Further, the IC50 in assay [2] is 25.1 to 158 nM.

On to `Cc1cccc(-c2nc(Nc3ccnc(Nc4ccc(C(=O)O)cc4)n3)c3cccn3n2)n1` [Compound 1021, 4-[[4-[[2-(6-methyl-2-pyridyl)pyrrolo[2,1-f][1,2,4]triazin-4-yl]amino]pyrimidin-2-yl]amino]benzoic acid], for which the Ki in assay [1] is 0.398 to 3.16 nM. Besides, the IC50 in assay [2] was 25.1 to 158 nM.

As to `Cc1cccc(-c2nccc(Nc3ccnc(Nc4ccc(NC(=O)C5CCN(C6CCOCC6)CC5)cc4)n3)n2)n1` [Compound 77, N-[4-[[4-[[2-(6-methyl-2-pyridyl)pyrimidin-4-yl]amino]pyrimidin-2-yl]amino]phenyl]-1-tetrahydropyran-4-yl-piperidine-4-carboxamide], the Ki in assay [1] is 0.0398 to 0.316 nM. In assay [2], the IC50 was 25.1 to 158 nM.

Turning to `Cc1cccc(-c2nccc(Nc3ccnc(Nc4csc(N)c4)n3)n2)n1` [Compound 500, N2-(5-amino-3-thienyl)-N4-[2-(6-methyl-2-pyridyl)pyrimidin-4-yl]pyrimidine-2,4-diamine], the Ki in assay [1] is 0.398 to 3.16 nM. Moreover, the IC50 in assay [2] was 25.1 to 158 nM.

`Cc1cccc(-c2nccc(Nc3ccnc(Nc4ccc(CN5CCCC(C(=O)OC6CCN(C)C6)C5)cc4)n3)n2)n1` (stereo not drawn) [Compound 29, (1-methylpyrrolidin-3-yl) 1-[[4-[[4-[[2-(6-methyl-2-pyridyl)pyrimidin-4-yl]amino]pyrimidin-2-yl]amino]phenyl]methyl] piperidine-3-carboxylate]: the Ki in assay [1] was at most 0.0316 nM. For the same compound, the IC50 in assay [2] is at most 20 nM.

For `Cc1cccc(-c2nccc(Nc3ccnc(Nc4ccc(NS(=O)(=O)N(C)C5CCNCC5)cc4)n3)n2)n1` [Compound 441, 4-[[2-[4-[[methyl(4-piperidyl)sulfamoyl]amino]anilino]pyrimidin-4-yl]amino]-2-(6-methyl-2-pyridyl)pyrimidine], in assay [1], the Ki is 0.0398 to 0.316 nM. In assay [2], the IC50 was 25.1 to 158 nM.

Take `Cc1cccc(-c2nccc(Nc3ccnc(Nc4ccc5[nH]ncc5c4)n3)n2)n1` [Compound 284, N2-(1H-indazol-5-yl)-N4-[2-(6-methyl-2-pyridyl)pyrimidin-4-yl]pyrimidine-2,4-diamine]: the Ki in assay [1] was 0.398 to 3.16 nM. Also, in assay [2], the IC50 was at most 20 nM.

Turning to `Cc1cccc(-c2nccc(Nc3ccnc(Nc4ccc(N5CCNCC5)c(CC(=O)OCC5CNC5)c4)n3)n2)n1` [Compound 57, azetidin-3-ylmethyl 2-[5-[[4-[[2-(6-methyl-2-pyridyl)pyrimidin-4-yl]amino]pyrimidin-2-yl]amino]-2-piperazin-1-yl-phenyl]acetate], the Ki in assay [1] was 0.0398 to 0.316 nM. The IC50 in assay [2] is 200 to 1260 nM.

For `Cc1cccc(-c2nccc(Nc3ccnc(Nc4ccc(CC(=O)O)cc4)n3)n2)n1` [Compound 82, 2-[4-[[4-[[2-(6-methyl-2-pyridyl)pyrimidin-4-yl]amino]pyrimidin-2-yl]amino]phenyl]acetic acid], the Ki in assay [1] was 0.398 to 3.16 nM. Further, in assay [2], the IC50 was 1580 to 10000 nM.
